{"source": "patent US20030096956A1", "about": "“Process for producing kiss-1 peptide” (priority 1999, published 2003)", "system": "intracellular calcium ion concentration", "test": "activity of increasing intracellular calcium ion concentration (method of Example 3 of WO 99/33976)", "type": "cell-based", "conditions": "compared with a standard product isolated from human placenta extract", "note": "Ends that are not written are not given here.", "data": [{"substance": "human KiSS-1 peptide: Recombinant peptide of SEQ ID NO: 1 with C-terminal amide, cleaved from KiSS-1 peptide-CS23 fusion protein expressed in E. coli (GTSLSPPPESSGSRQQPGLSAPHSRQIPAPQGAVLVQREKDLPNYNWNSFGLRF-NH2)", "values": [{"measurement": "activity of increasing intracellular calcium ion concentration", "value": "equivalent to that of a standard product isolated from human placenta extract"}]}]}
